Data as given in ChEMBL document CHEMBL6127041, “Dual-target inhibitors based on acetylcholinesterase: Novel agents for Alzheimer's disease” (Eur J Med Chem, 2024).

Tests used:
[1] = target: T1, Glycogen synthase kinase-3 beta (Homo sapiens, UniProt P49841); experiment: Inhibition of human recombinant GSK3beta by ADP-Glo Kinase Assay
[2] = target: T2, Acetylcholinesterase (Homo sapiens, UniProt P22303)
[3] = target: T3, Acetylcholinesterase (Electrophorus electricus, UniProt O42275); experiment: Inhibition of electric eel AChE
T3 sequence (O42275 whole entry): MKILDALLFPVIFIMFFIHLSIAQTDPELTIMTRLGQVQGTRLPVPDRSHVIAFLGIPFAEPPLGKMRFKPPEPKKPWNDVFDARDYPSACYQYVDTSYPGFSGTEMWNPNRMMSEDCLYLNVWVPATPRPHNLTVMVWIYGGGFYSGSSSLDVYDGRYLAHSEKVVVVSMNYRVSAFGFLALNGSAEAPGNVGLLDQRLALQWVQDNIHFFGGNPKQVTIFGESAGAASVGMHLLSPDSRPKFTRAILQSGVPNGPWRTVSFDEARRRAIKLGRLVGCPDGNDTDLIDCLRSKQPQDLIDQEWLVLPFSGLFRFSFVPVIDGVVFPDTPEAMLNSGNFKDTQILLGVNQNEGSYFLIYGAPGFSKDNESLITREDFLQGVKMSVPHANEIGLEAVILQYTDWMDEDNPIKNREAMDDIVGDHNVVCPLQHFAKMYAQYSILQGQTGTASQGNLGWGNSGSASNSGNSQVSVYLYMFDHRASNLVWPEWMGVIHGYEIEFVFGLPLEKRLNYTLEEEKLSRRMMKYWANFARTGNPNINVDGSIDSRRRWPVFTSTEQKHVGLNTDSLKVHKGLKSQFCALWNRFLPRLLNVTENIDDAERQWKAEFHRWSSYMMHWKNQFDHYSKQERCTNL

[4] = target: T2, Acetylcholinesterase; experiment: Inhibition of AChE (unknown origin)
[5] = target: High affinity cGMP-specific 3',5'-cyclic phosphodiesterase 9A (Homo sapiens, UniProt O76083); experiment: Inhibition of PDE9A (unknown origin)
High affinity cGMP-specific 3',5'-cyclic phosphodiesterase 9A, sequence (O76083 whole entry): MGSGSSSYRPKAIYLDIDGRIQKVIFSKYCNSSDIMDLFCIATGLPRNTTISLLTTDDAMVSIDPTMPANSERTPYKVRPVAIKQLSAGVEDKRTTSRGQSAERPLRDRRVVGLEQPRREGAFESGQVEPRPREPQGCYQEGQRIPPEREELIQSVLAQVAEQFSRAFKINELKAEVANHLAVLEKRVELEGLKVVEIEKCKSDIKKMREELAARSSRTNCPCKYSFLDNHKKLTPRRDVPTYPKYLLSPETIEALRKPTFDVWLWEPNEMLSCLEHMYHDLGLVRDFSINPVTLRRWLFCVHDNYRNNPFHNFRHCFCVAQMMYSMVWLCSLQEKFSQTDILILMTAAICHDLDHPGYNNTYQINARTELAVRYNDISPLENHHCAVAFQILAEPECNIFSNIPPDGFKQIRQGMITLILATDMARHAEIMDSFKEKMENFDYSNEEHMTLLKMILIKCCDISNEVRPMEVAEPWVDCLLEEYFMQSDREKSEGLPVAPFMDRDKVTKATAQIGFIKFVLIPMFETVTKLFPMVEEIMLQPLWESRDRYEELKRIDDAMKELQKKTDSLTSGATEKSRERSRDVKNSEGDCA

[6] = target: T1, Glycogen synthase kinase-3 beta; experiment: Inhibition of GSK3beta (unknown origin)
[7] = target: T2, Acetylcholinesterase; experiment: Inhibition of AChE (unknown origin) by Ellman's method
[8] = target: cGMP-specific 3',5'-cyclic phosphodiesterase (Homo sapiens, UniProt O76074); experiment: Inhibition of PDE5A (unknown origin) using […] as substrate measured after 1 hr by fluorescence polarization assay
[9] = target: T4, Beta-secretase 1 (Homo sapiens, UniProt P56817); experiment: Inhibition of BACE-1 (unknown origin)
T4 sequence (P56817 whole entry): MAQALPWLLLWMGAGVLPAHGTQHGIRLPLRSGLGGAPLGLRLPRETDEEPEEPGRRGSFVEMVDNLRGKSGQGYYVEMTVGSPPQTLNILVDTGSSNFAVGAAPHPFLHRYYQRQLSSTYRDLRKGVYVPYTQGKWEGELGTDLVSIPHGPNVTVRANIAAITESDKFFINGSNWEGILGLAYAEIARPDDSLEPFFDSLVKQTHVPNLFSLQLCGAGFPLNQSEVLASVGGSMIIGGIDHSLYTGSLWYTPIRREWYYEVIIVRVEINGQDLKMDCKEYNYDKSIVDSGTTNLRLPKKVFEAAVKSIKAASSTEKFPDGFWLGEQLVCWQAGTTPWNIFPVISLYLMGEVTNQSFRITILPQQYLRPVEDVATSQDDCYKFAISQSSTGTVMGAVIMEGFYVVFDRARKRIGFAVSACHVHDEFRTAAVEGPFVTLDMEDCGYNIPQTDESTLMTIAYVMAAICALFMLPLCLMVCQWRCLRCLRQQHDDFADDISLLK

[10] = target: Cholinesterase (Equus caballus, UniProt P81908); experiment: Inhibition of equine serum BuChE using butyrylthiocholine iodide as substrate preincubated for 5 mins followed by substrate addition by DTNB reagent based Ellman's method
Cholinesterase (Equus caballus, UniProt P81908), sequence (P81908 whole entry): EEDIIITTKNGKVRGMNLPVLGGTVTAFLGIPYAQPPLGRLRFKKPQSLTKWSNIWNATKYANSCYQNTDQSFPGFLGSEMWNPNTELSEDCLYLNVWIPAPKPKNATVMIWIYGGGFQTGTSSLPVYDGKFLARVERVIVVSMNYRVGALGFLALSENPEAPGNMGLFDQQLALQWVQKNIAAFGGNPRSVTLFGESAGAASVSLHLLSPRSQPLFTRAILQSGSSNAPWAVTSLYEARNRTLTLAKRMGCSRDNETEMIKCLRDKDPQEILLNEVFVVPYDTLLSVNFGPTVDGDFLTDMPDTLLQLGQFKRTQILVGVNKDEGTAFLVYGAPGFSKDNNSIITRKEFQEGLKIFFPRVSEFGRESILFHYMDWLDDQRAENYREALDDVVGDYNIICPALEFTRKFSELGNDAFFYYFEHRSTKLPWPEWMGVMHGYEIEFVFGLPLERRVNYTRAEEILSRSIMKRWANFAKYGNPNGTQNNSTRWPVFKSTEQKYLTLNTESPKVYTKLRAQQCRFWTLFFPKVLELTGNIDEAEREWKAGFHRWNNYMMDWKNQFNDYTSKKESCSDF

[11] = target: T5, Amine oxidase [flavin-containing] A (Homo sapiens, UniProt P21397); experiment: Inhibition of MAO-A (unknown origin)
T5 sequence (P21397 whole entry): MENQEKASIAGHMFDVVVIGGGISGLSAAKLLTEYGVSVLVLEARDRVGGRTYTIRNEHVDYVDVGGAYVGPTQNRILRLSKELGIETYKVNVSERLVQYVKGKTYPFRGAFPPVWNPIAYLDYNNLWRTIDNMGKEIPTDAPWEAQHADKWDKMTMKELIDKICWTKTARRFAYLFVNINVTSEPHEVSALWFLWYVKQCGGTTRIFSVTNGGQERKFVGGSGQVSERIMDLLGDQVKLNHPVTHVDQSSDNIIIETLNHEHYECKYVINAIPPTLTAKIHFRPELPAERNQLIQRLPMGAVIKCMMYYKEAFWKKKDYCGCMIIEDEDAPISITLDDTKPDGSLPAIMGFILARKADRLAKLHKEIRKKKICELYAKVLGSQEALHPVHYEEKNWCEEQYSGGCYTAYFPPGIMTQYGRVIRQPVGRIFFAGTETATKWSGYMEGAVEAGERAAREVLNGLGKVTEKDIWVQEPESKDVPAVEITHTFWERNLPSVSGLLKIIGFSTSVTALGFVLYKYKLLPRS

[12] = target: T6, Amine oxidase [flavin-containing] B (Homo sapiens, UniProt P27338); experiment: Inhibition of MAO-B (unknown origin)
T6 sequence (P27338 whole entry): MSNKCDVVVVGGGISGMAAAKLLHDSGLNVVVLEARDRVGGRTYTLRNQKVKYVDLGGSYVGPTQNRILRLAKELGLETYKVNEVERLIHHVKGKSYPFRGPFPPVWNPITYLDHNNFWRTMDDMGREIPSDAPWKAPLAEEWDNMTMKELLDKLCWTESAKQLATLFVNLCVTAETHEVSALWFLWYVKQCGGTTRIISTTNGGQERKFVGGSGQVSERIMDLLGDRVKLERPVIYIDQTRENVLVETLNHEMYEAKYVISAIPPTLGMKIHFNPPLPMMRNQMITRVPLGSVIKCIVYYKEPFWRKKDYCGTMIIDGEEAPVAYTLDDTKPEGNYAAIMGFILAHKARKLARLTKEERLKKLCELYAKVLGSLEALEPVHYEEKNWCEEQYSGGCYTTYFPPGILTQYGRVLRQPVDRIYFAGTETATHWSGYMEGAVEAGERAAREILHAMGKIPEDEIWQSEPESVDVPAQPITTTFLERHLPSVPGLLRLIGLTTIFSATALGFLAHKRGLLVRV

[13] = target: T2, Acetylcholinesterase; experiment: Inhibition of AChE (unknown origin) using acetylthiocholine iodide as substrate measured for 20 mins by Ellman's method
[14] = target: T7, Cholinesterase (Homo sapiens, UniProt P06276); experiment: Inhibition of BChE (unknown origin)
T7 sequence (P06276 whole entry): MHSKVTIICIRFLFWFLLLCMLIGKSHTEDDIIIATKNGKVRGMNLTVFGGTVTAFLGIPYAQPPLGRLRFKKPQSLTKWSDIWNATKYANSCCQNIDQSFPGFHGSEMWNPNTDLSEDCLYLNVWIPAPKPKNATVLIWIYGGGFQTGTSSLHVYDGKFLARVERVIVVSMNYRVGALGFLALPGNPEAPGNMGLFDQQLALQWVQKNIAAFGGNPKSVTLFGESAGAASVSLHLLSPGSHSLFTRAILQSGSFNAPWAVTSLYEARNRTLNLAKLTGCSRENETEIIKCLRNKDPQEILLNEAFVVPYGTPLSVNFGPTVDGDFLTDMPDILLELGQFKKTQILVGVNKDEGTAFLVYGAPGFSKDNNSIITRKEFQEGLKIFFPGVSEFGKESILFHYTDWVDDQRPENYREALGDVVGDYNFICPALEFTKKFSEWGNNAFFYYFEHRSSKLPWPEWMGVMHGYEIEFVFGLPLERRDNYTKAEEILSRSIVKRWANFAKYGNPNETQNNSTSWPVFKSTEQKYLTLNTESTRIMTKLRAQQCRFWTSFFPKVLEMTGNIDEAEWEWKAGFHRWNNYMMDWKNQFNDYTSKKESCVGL

[15] = Permeability of compound at pH 7.4 by PAMPA assay; format: ADME; conditions: read-out: permeability
[16] = target: T2, Acetylcholinesterase; experiment: Inhibition of AChE (unknown origin) using acetylthiocholine iodide as substrate measured after 15 mins by Ellman's method
[17] = target: T4, Beta-secretase 1; experiment: Inhibition of BACE-1 (unknown origin) incubated for 60 mins by TR-FRET assay
[18] = target: T4, Beta-secretase 1; experiment: Inhibition of human BACE-1 by FRET assay
[19] = system: SH-SY5Y; experiment: Cytotoxicity against human SH-SY5Y cells assessed as reduction in cell viability at 10 uM measured after 24 hrs by MTT assay relative to control; format: functional
[20] = target: T3, Acetylcholinesterase; experiment: Inhibition of electric eel AChE by Ellman's method
[21] = target: T1, Glycogen synthase kinase-3 beta
Description: Inhibition of human GSK3beta by TR-FRET analysis

[22] = target: T6, Amine oxidase [flavin-containing] B; experiment: Inhibition of human MAO-B using Tyramine hydrochloride as substrate preincubated for 30 mins followed by substrate addition and measured for 1 hr by fluorometric method
[23] = target: T2, Acetylcholinesterase; experiment: Inhibition of human AChE using acetylthiocholine iodide as substrate preincubated for 15 mins followed by substrate addition and measured for 30 mins by Ellman's method
[24] = target: T2, Acetylcholinesterase; experiment: Inhibition of human AChE using acetylthiocholine iodide as substrate after 15 mins by Ellman's method
[25] = target: T2, Acetylcholinesterase; experiment: Inhibition of AChE (unknown origin) at 40 uM by Ellman's method relative to control
[26] = target: T2, Acetylcholinesterase; experiment: Inhibition of human AChE using acetylthiocholine iodide as substrate measured for 1 hr by Ellman's method
[27] = target: T7, Cholinesterase; experiment: Inhibition of human BChE using butyrylthiocholineiodide as substrate measured for 30 mins by Ellman's method
[28] = target: T2, Acetylcholinesterase; remark: listed apart in the source
Description: Inhibition of human AChE by Ellman's method

T2 sequence (P22303 whole entry): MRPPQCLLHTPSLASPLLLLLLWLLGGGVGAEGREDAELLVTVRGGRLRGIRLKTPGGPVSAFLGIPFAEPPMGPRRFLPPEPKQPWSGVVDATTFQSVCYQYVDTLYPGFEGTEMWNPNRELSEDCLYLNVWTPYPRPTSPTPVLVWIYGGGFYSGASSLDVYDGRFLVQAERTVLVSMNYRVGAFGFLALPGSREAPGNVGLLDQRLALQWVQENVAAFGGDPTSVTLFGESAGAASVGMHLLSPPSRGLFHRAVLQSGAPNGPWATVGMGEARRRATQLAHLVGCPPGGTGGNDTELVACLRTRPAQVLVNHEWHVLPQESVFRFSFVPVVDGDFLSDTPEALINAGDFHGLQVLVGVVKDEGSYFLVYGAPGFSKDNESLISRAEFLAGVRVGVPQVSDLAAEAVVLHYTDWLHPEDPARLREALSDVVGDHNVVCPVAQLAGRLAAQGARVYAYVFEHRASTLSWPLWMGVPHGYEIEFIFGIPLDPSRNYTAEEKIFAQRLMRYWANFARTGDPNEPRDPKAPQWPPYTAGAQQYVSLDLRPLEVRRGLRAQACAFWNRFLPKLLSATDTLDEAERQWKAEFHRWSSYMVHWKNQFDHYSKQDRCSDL
T1 sequence (P49841 whole entry): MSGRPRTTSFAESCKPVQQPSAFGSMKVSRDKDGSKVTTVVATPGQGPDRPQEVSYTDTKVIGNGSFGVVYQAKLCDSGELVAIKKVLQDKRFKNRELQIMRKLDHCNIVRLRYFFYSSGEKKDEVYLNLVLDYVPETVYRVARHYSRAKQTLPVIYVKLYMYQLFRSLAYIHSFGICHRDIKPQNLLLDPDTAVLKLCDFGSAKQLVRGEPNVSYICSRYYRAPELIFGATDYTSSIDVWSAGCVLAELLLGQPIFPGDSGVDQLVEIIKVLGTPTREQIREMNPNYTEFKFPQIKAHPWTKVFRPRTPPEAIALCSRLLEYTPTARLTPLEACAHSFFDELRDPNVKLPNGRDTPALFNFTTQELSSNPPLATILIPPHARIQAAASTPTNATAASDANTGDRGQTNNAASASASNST

`COc1nc(-c2ccnc(NC(=O)C3CC3)c2)sc1C(=O)NCCNc1c2c(nc3ccccc13)CCCC2` showed an IC50 [1] of 66 nM and an IC50 [2] of 6.4 nM.
`O=C1c2c(O)cc(OCCCCCN3CCCCC3)cc2OC2C=CC=CC12` (stereo not given) showed an IC50 [3] of 469 nM.
Compound `O=c1[nH]c(COCCC2CCN(Cc3ccccc3)CC2)nc2c1cnn2C1CCCC1` has an IC50 [4] of 230 nM and an IC50 [5] of 530 nM.
For `Cn1c(NCC(=O)c2ccccc2)nc(-c2ccncc2)cc1=O`, the IC50 [6] was 5630 nM.
`O=C1[C@H]2Cc3c([nH]c4ccccc34)[C@@H](c3ccc4c(c3)OCO4)N2C(=O)CN1CCC1CCN(Cc2ccccc2)CC1` showed an IC50 [7] of 30 nM and an IC50 [8] of 150 nM.
Compound `Fc1ccc(-c2nnc(N3CCN(c4ccccn4)CC3)o2)c(F)c1` has an IC50 [9] of 210 nM and an IC50 [10] of 160 nM.
With `COc1cc(/C=C2\Oc3cc(OCCN4CCCCC4)ccc3C2=O)cc(OC)c1OC` the IC50 [11] was > 100000 nM, the IC50 [12] was 340 nM and the IC50 [13] was 1560 nM.
`O=c1[nH]c(CNCCC2CCN(Cc3ccccc3)CC2)nc2c1cnn2C1CCCC1` gave an IC50 [4] of 290 nM, an IC50 [14] of 5800 nM and an IC50 [5] of 380 nM.
Compound `CN1CC(=O)N2[C@H](c3ccc4c(c3)OCO4)c3[nH]c4ccccc4c3C[C@@H]2C1=O` has a Papp at 18 h [15] of 2.16 ×10⁻⁶ cm/s.
Compound `Nc1ccccc1C(=O)/C=C/c1cnc2ccccc2c1` has an IC50 [16] of 540 nM and an IC50 [17] of 16900 nM.
In the case of `c1ccc2oc(CNCCCCCCCNc3c4c(cc5ccccc35)CCCC4)cc2c1`, the IC50 [18] is reported as 1350 nM, the Activity [19] is reported as 63% and the IC50 [2] is reported as 0.86 nM.
Work on `O=CNc1nccc2c1[nH]c1cc(C(=O)NCCC3CCN(Cc4ccccc4F)CC3)ccc12` yielded an IC50 [20] of 270 nM and an IC50 [21] of 6780 nM.
`COc1cc(/C=C/c2nnc(-c3ccc(C(F)(F)F)cc3)o2)ccc1O` showed a Papp at 18 h [15] of 5.3 ×10⁻⁶ cm/s.
`COc1ccc(/C=C/C(=O)c2ccccc2O)cc1OC` gave an IC50 [4] of 28000 nM and an IC50 [22] of 1410 nM.
With `Nc1ccccc1C(=O)/C=C/c1ccc(Cl)nc1` the IC50 [16] was 19000 nM and the IC50 [17] was 8340 nM.
In the case of `Clc1ccc(-c2nnc(CNC3CCN(Cc4ccccc4)CC3)o2)c(Cl)c1`, the IC50 [9] is reported as 250 nM and the IC50 [10] is reported as 210 nM.
Compound `O=C1/C(=C/c2ccc(O)cc2)Oc2cc(O)ccc21` has an IC50 [23] of 202000 nM.
For `O=c1[nH]c(CCCCC2CCN(Cc3ccccc3)CC2)nc2c1cnn2C1CCCC1`, the IC50 [4] was 40 nM and the IC50 [5] was 280 nM.
Compound `CNC(=O)c1sc(-c2ccnc(NC(=O)C3CC3)c2)nc1OC1CCN(Cc2ccccc2)CC1` has an IC50 [24] of 73 nM.
`COc1nc(-c2ccnc(NC(=O)C3CC3)c2)sc1C(=O)NCNc1c2c(nc3ccccc13)CCCC2` gave an IC50 [1] of 68 nM and an IC50 [2] of 6.3 nM.
`COc1ccc([C@@H]2c3[nH]c4ccccc4c3C[C@@H]3C(=O)N(CCC4CCN(Cc5ccccc5)CC4)CC(=O)N23)cc1` gave an inhibition [25] of 55.4%.
For `COc1ccccc1/C=C1\Oc2cc(OCCN3CCCC3)ccc2C1=O`, the IC50 [11] was > 100000 nM, the IC50 [12] was 980 nM and the IC50 [13] was 2670 nM.
Compound `[O-]/[N+](=C\c1ccc2cccc(O)c2n1)Cc1ccccc1` has an IC50 [26] of 30 nM and an IC50 [27] of 1 nM.
`O=c1ccoc2ccc(OCCCN3CCCCC3)cc12` gave an IC50 [12] of 7200 nM and an IC50 [28] of 5580 nM.
